pIC50: −log10 of the molar value. In brackets after ≈: the same amount, converted by molar mass. Like-named read-outs stand apart in the source and are kept apart here. Numbered stars: 1 amine (or outer) side, 2 acyl side, 3 side chain; on linkers, the order of the positions; unused ones are H or OH. Bridge positions count the residues as written; N and C are the ends. Side chains are listed from the residue outwards. Peptide text beside a SMILES is read from it. * marks the point of attachment. C20 diacid = O=C(O)CCCCCCCCCCCCCCCCCCC(=O)*; γGlu = O=C(O)[C@H](CCC(=O)[*:2])N[*:1]; AEEA = NCCOCCOCC(=O)O
What was measured:
[1] = ASSAY (IV) determination of solubility; assay type: physicochemical
Procedure, shortened: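 Polypeptide stock in water ([…]) was mixed 1:1 with 100 mM buffers: glycylglycine at pH 3.0, 4.0, 5.0 and bistrispropane at pH 6.0, 6.5, 7.0, 7.5, 8.0. After 18 hours at room temperature, samples were centrifuged and polypeptide concentration measured by UPLC.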

rat calcitonin receptor = biological target: T1, rat calcitonin receptor (Rattus norvegicus, UniProt P32214); test: ASSAY (VIII) binding to the rat calcitonin receptor; settings: Table 7, read-out: rCTR bind IC50
T1 construct: expressed in transfected cells; host or cells: BHK tk'ts 13 (transient, FuGENE 6), membranes
T1 sequence (P32214 25-479 isoform P32214-2 limits assumed): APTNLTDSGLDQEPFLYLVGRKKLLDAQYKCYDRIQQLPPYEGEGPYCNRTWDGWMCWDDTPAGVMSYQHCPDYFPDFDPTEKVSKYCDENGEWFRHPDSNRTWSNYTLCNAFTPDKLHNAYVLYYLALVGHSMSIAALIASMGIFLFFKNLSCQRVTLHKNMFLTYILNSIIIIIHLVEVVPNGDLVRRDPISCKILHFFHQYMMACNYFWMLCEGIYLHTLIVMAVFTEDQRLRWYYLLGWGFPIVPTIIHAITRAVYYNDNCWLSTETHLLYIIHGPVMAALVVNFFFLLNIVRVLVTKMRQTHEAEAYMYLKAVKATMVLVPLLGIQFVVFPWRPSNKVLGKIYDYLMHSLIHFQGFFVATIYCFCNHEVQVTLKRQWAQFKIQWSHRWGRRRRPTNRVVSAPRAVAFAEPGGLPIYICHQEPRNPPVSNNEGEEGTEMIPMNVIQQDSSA
Procedure, shortened: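 Transfect BHK tk′ts 13 cells transiently with rat calcitonin receptor, culture in DMEM containing 10% FBS, collect cells about 48 hours later, then prepare membranes.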

[2] = bistrispropane buffer, pH 6.5, read-out: Solubility pH 6.5 Concentration
[3] = bistrispropane buffer, pH 7.5, read-out: Solubility pH 7.5 Concentration
[4] = bistrispropane buffer, pH 6.0, read-out: Solubility pH 6.0 Concentration
[5] = bistrispropane buffer, pH 7.0, read-out: Solubility pH 7.0 Concentration
[6] = bistrispropane buffer, pH 8.0, read-out: Solubility pH 8.0 Concentration
[7] = glycylglycine buffer, pH 3.0, read-out: Solubility pH 3.0 Concentration
[8] = glycylglycine buffer, pH 4.0, read-out: Solubility pH 4.0 Concentration
[9] = glycylglycine buffer, pH 5.0, read-out: Solubility pH 5.0 Concentration

| SMILES | solubility at 18 h [1, 2] [µM] | solubility at 18 h [1, 3] [µM] | solubility at 18 h [1, 4] [µM] | solubility at 18 h [1, 5] [µM] | solubility at 18 h [1, 6] [µM] | solubility at 18 h [1, 7] [µM] | solubility at 18 h [1, 8] [µM] | solubility at 18 h [1, 9] [µM] | pIC50 (rat calcitonin receptor) |
| --- | --- | --- | --- | --- | --- | --- | --- | --- | --- |
| CC[C@H](C)[C@H](NC(=O)[C@H](C)NC(=O)CNC(=O)[C@H](Cc1ccccc1)NC(=O)[C@H](CC(N)=O)NC(=O)[C@@H]1CCCN1C(=O)[C@H](CO)NC(=O)[C@H](CO)NC(=O)[C@H](Cc1c[nH]cn1)NC(=O)[C@H](CCCNC(=N)N)NC(=O)[C@H](CC(C)C)NC(=O)[C@H](Cc1ccccc1)NC(=O)[C@H](CCC(=O)O)NC(=O)[C@H](C)NC(=O)[C@H](CC(C)C)NC(=O)[C@H](CCCNC(=N)N)NC(=O)[C@H](CCC(N)=O)NC(=O)[C@@H](NC(=O)[C@H](C)NC(=O)[C@@H]1CSSC[C@H](NC(=O)[C@H](CCCCN)NC(=O)CC[C@H](NC(=O)CCCCCCCCCCCCCCCCCCC(=O)O)C(=O)O)C(=O)N[C@@H](CC(N)=O)C(=O)N[C@@H]([C@@H](C)O)C(=O)N[C@@H](C)C(=O)N[C@@H]([C@@H](C)O)C(=O)N1)[C@@H](C)O)C(=O)N1CCC[C@H]1C(=O)N[C@@H](CO)C(=O)N[C@@H](CO)C(=O)N[C@H](C(=O)N[C@@H](CC(N)=O)C(=O)N[C@H](C(=O)NCC(=O)N[C@@H](CO)C(=O)N[C@@H](CCC(=O)O)C(=O)N[C@H](C(=O)N[C@@H](Cc1ccc(O)cc1)C(N)=O)[C@@H](C)O)C(C)C)[C@@H](C)O [Example 22] ({C20 diacid-γGlu}-KCNTATCATQRLAEFLRHSSPNFGAIPSSTNVGSETY-NH2; disulfide 2-7) | ≥ 200 | ≥ 200 | 195 (≈ 860 µg/mL) | ≥ 200 | ≥ 200 | ≥ 200 | ≥ 200 | ≥ 200 | 7.20 |
| CC[C@H](C)[C@H](NC(=O)[C@H](C)NC(=O)CNC(=O)[C@H](Cc1ccccc1)NC(=O)[C@H](CC(N)=O)NC(=O)[C@@H]1CCCN1C(=O)[C@H](CO)NC(=O)[C@H](CO)NC(=O)[C@H](Cc1c[nH]cn1)NC(=O)[C@H](CCCNC(=N)N)NC(=O)[C@H](CC(C)C)NC(=O)[C@H](Cc1ccccc1)NC(=O)[C@H](CC(N)=O)NC(=O)[C@H](C)NC(=O)[C@H](CC(C)C)NC(=O)[C@H](CCCNC(=N)N)NC(=O)[C@H](CCC(N)=O)NC(=O)[C@@H](NC(=O)[C@H](C)NC(=O)[C@@H]1CSSC[C@H](NC(=O)[C@H](CCCCN)NC(=O)CC[C@H](NC(=O)CCCCCCCCCCCCCCCCCCC(=O)O)C(=O)O)C(=O)N[C@@H](CC(N)=O)C(=O)N[C@@H]([C@@H](C)O)C(=O)N[C@@H](C)C(=O)N[C@@H]([C@@H](C)O)C(=O)N1)[C@@H](C)O)C(=O)N1CCC[C@H]1C(=O)N[C@@H](CO)C(=O)N[C@@H](CO)C(=O)N[C@H](C(=O)N[C@@H](CC(N)=O)C(=O)N[C@H](C(=O)NCC(=O)N[C@@H](CO)C(=O)N[C@@H](CCC(=O)O)C(=O)N[C@H](C(=O)N[C@@H](Cc1ccc(O)cc1)C(N)=O)[C@@H](C)O)C(C)C)[C@@H](C)O [Example 23] | ≥ 200 | ≥ 200 | ≥ 200 | ≥ 200 | ≥ 200 | ≥ 200 | ≥ 200 | ≥ 200 | 7.10 |
| CC[C@H](C)[C@H](NC(=O)[C@H](C)NC(=O)CNC(=O)[C@H](Cc1ccccc1)NC(=O)[C@H](CC(N)=O)NC(=O)[C@@H]1CCCN1C(=O)[C@H](CO)NC(=O)[C@H](CO)NC(=O)[C@H](Cc1c[nH]cn1)NC(=O)[C@H](CCCNC(=N)N)NC(=O)[C@H](CC(C)C)NC(=O)[C@H](Cc1ccccc1)NC(=O)[C@H](CC(N)=O)NC(=O)[C@H](C)NC(=O)[C@H](CC(C)C)NC(=O)[C@H](CCCNC(=N)N)NC(=O)[C@H](CCC(N)=O)NC(=O)[C@@H](NC(=O)[C@H](C)NC(=O)[C@@H]1CSSC[C@H](NC(=O)[C@@H](N)CCCCNC(=O)COCCOCCNC(=O)COCCOCCNC(=O)CC[C@H](NC(=O)CCCCCCCCCCCCCCCCCCC(=O)O)C(=O)O)C(=O)N[C@@H](CC(N)=O)C(=O)N[C@@H]([C@@H](C)O)C(=O)N[C@@H](C)C(=O)N[C@@H]([C@@H](C)O)C(=O)N1)[C@@H](C)O)C(=O)N1CCC[C@H]1C(=O)N[C@@H](CO)C(=O)N[C@@H](CO)C(=O)N[C@H](C(=O)N[C@@H](CC(N)=O)C(=O)N[C@H](C(=O)NCC(=O)N[C@@H](CO)C(=O)N[C@@H](CCC(=O)O)C(=O)N[C@H](C(=O)N[C@@H](Cc1ccc(O)cc1)C(N)=O)[C@@H](C)O)C(C)C)[C@@H](C)O [Example 25] | ≥ 200 | ≥ 200 | ≥ 200 | ≥ 200 | ≥ 200 | ≥ 200 | ≥ 200 | ≥ 200 | 6.88 |
| CC[C@H](C)[C@H](NC(=O)[C@H](C)NC(=O)CNC(=O)[C@H](Cc1ccccc1)NC(=O)[C@H](CC(N)=O)NC(=O)[C@@H]1CCCN1C(=O)[C@H](CO)NC(=O)[C@H](CO)NC(=O)[C@H](Cc1c[nH]cn1)NC(=O)[C@H](CCCNC(=N)N)NC(=O)[C@H](CC(C)C)NC(=O)[C@H](Cc1ccccc1)NC(=O)[C@H](CC(N)=O)NC(=O)[C@H](C)NC(=O)[C@H](CC(C)C)NC(=O)[C@H](CCCNC(=N)N)NC(=O)[C@H](CCC(N)=O)NC(=O)[C@@H](NC(=O)[C@H](C)NC(=O)[C@@H]1CSSC[C@H](NC(=O)[C@@H](N)CCCCNC(=O)COCCOCCNC(=O)CC[C@H](NC(=O)CCCCCCCCCCCCCCCCCCC(=O)O)C(=O)O)C(=O)N[C@@H](CC(N)=O)C(=O)N[C@@H]([C@@H](C)O)C(=O)N[C@@H](C)C(=O)N[C@@H]([C@@H](C)O)C(=O)N1)[C@@H](C)O)C(=O)N1CCC[C@H]1C(=O)N[C@@H](CO)C(=O)N[C@@H](CO)C(=O)N[C@H](C(=O)N[C@@H](CC(N)=O)C(=O)N[C@H](C(=O)NCC(=O)N[C@@H](CO)C(=O)N[C@@H](CCC(=O)O)C(=O)N[C@H](C(=O)N[C@@H](Cc1ccc(O)cc1)C(N)=O)[C@@H](C)O)C(C)C)[C@@H](C)O [Example 26] (H-K([AEEA-γGlu-C20 diacid])CNTATCATQRLANFLRHSSPNFGAIPSSTNVGSETY-NH2; disulfide 2-7; N-terminus assumed) | ≥ 200 | ≥ 200 | ≥ 200 | ≥ 200 | ≥ 200 | ≥ 200 | ≥ 200 | ≥ 200 | 6.82 |
| CC[C@H](C)[C@H](NC(=O)[C@H](C)NC(=O)CNC(=O)[C@H](Cc1ccccc1)NC(=O)[C@H](CC(N)=O)NC(=O)[C@@H]1CCCN1C(=O)[C@H](CO)NC(=O)[C@H](CO)NC(=O)[C@H](Cc1c[nH]cn1)NC(=O)[C@H](CCCNC(=N)N)NC(=O)[C@H](CC(C)C)NC(=O)[C@H](Cc1ccccc1)NC(=O)[C@H](CC(N)=O)NC(=O)[C@H](C)NC(=O)[C@H](CC(C)C)NC(=O)[C@H](CCCNC(=N)N)NC(=O)[C@H](CCC(N)=O)NC(=O)[C@@H](NC(=O)[C@H](C)NC(=O)[C@@H]1CSSC[C@H](NC(=O)[C@@H](N)CCCCNC(=O)CC[C@H](NC(=O)CCCCCCCCCCCCCCCCCCC(=O)O)C(=O)O)C(=O)N[C@@H](CC(N)=O)C(=O)N[C@@H]([C@@H](C)O)C(=O)N[C@@H](C)C(=O)N[C@@H]([C@@H](C)O)C(=O)N1)[C@@H](C)O)C(=O)N1CCC[C@H]1C(=O)N[C@@H](CO)C(=O)N[C@@H](CO)C(=O)N[C@H](C(=O)N[C@@H](CC(N)=O)C(=O)N[C@H](C(=O)NCC(=O)N[C@@H](CO)C(=O)N[C@@H](CCC(=O)O)C(=O)N[C@H](C(=O)N[C@@H](Cc1ccc(O)cc1)C(N)=O)[C@@H](C)O)C(C)C)[C@@H](C)O [Example 27] | ≥ 200 | ≥ 200 | ≥ 200 | ≥ 200 | ≥ 200 | ≥ 200 | ≥ 200 | ≥ 200 | 7.04 |

Source: patent publication US9023789B2, “Amylin analogs and pharmaceutical compositions thereof” (Novo Nordisk A/S, priority 2012, dated 2015)
